What was measured:
Format in all cases: physicochemical
[1] = glass transition temperature (Tg) of the drug; conditions: for Tg: Table B, unless noted Tg measured at less than 10% RH
Experimental: In a first aspect, the invention comprises a solid composition comprising a plurality of particles. The particles comprise a low-solubility drug and a poloxamer. The drug is in intimate contact with the poloxamer in the particles. Collectively, the drug and poloxamer constitute at least 50 wt % of the particles. At least a substantial portion of the drug in the composition is amorphous. The Tg of the drug is at least 50° C. Unless otherwise noted, as used herein the Tg refers to the Tg measured at less than 10% RH.
Such Tg values may represent that of drug dispersed in the amorphous portions of the poloxamer or the Tg of drug-rich phases or domains. […] The Tg of the drug may be at least about 60° C., at least about 70° C., or even at least about 80° C. The Tg of a drug can be determined using standard analytical techniques well known in the art, including by a dynamic mechanical analyzer (DMA), a dilatometer, a dielectric analyzer, and by differential scanning calorimetry (DSC).

[2] = in vitro dissolution test of Drug 4 compositions in PBS; conditions: for AUC / Drug 4 Concentration: 1000 μg/mL if all dissolved; for Drug 4 Concentration: 37° C.
Experimental: (§1) The solid compositions of Examples 1-2 were evaluated in an in vitro dissolution test to ascertain concentration enhancement of Drug 1. A […] sample of each solid composition was added in duplicate to a microcentrifuge tube, so that the total concentration of Drug 1 would have been 2000 μg/mL if all of the drug had dissolved. The tubes were placed in a 37° C. temperature-controlled chamber, and 1.8 mL PBS containing 0.5 wt % sodium taurocholic acid and 1-palmitoyl-2-oleyl-sn-glycero-3-phosphocholine (NaTC/POPC, with a 4/1 weight ratio) at pH 6.5 and 290 mOsm/kg (simulating a Model Fasted Duodenal solution) was added to each respective tube. The samples were quickly mixed using a vortex mixer for about 60 seconds. The samples were centrifuged at 13,000 G at 37° C. for 1 minute. The resulting supernatant solution was then sampled and diluted 1:6 (by volume) with methanol and then analyzed by high-performance liquid chromatography (HPLC). The contents of each respective tube were mixed on a vortex mixer and allowed to stand undisturbed at 37° C. until the next sample was taken. Samples were collected at 4, 10, 20, 40, 90, and 1200 minutes.
The solid compositions of Examples 10-13 were evaluated in an in vitro dissolution test as in Examples 1-2, except that the dissolution medium was PBS. The amount of each composition added to the microcentrifuge tube was adjusted so that the concentration of Drug 4 in solution if all of the drug had dissolved was 1000 μg/mL.
The spray-dried compositions of Examples 14-15 were evaluated in an in vitro dissolution test as in Examples 10-13. The amount of each composition added to the microcentrifuge tube was adjusted so that the concentration of Drug 4 in solution if all of the drug had dissolved was […].
This composition was evaluated in an in vitro dissolution test as in Examples 10-13.

[3] = in vitro dissolution test of Drug 1 compositions in Model Fasted Duodenal solution; conditions: for AUC: MFD solution; for AUC / Drug 1 Concentration: 2000 μg/mL if all dissolved; for Drug 1 Concentration: MFD solution pH 6.5, 37° C.
Experimental: as §1
As a control (C1), a sample of crystalline Drug 1 alone was tested in the same manner so that the concentration of Drug 1 in MFD solution would have been 2000 μg/mL if all of the drug had dissolved.
The concentrations of drug obtained in these samples were used to determine the maximum drug concentration (“MDC90”) and the area under the concentration-versus-time curve (“AUC90”) during the initial 90 minutes.

“4-[3-[4-(2-methylimidazol-1-yl) phenylthio] phenyl]-3,4,5,6-tetrahydro-2H-pyran-4-carboxamide hemifumarate” gave a Tg [1] of 81 °C.

In the case of `O=C(O)c1ccc(C(F)(F)F)cc1-c1ccc2c(c1)OCC(Cc1ccccc1)C2O` (single isomer, unassigned; (+)) [(+)-2-(3-benzyl-4hydroxy-chroman-7-yl)-4-trifluoromethyl-benzoic acid], the Tg [1] is reported as 53 °C.

`CON(C)C(=O)C(O)[C@H](Cc1ccccc1)NC(=O)c1cc2cc(Cl)ccc2[nH]1` (stereo in doubt) [[R—(R*,S*)]-5-chloro-N-[2-hydroxy-3-[(methoxymethylamino)-3-oxo-1-(phenylmethyl)propyl]propyl]-1H-indole-2-carboxamide] gave a Tg [1] of 80 °C.

For `CC(C)c1c(C(=O)Nc2ccccc2)c(-c2ccccc2)c(-c2ccc(F)cc2)n1CCC(O)CC(O)CC(=O)[O-].CC(C)c1c(C(=O)Nc2ccccc2)c(-c2ccccc2)c(-c2ccc(F)cc2)n1CCC(O)CC(O)CC(=O)[O-].O.O.O.[Ca+2]` (stereo not drawn) [2-(4-fluorophenyl)-beta, delta-dihydroxy-5-(1-methylethyl)-3-phenyl-4-[(phenylamino)carbonyl]-1H-pyrrole-1-heptanoic acid, calcium salt (2:1), trihydrate], the Tg [1] was 111 °C.

`C[C@@H]1CC[C@@]2(OC1)O[C@H]1C[C@H]3[C@@H]4CC[C@H]5C[C@@H](O[C@@H]6O[C@H](CO)[C@@H](O[C@@H]7O[C@H](COC(=O)Nc8ccccc8F)[C@@H](OC(=O)Nc8ccccc8F)[C@H](O)[C@H]7O)[C@H](O)[C@H]6O)CC[C@]5(C)[C@H]4CC(=O)[C@]3(C)[C@H]1[C@@H]2C` [3-[(4-O-{4,6-bis(2-flurophenylcarbamoyl)]-β-D-glucopyranolsyl-)β-D-flucopyranosyl]oxy-(3β,5α,25R)-spirostan-12-one] gave a Tg [1] of 143 °C.

For `O=C(NC(Cc1ccccc1)C(=O)N1CC(O)C1)c1cc2cc(Cl)ccc2[nH]1` (stereo not drawn) [5-chloro-1H-indole-2-carboxylic acid [(1)-benzyl-2-(3-hydroxy-azetidin-1-yl)-2-oxo-ethyl]-amide], the Tg [1] was 91 °C.

`Cl.Cl.O=C(O)COCCN1CCN(C(c2ccccc2)c2ccc(Cl)cc2)CC1` (stereo not drawn) [(2(-(4-((4-chlorophenyl)phenylmethyl)-1-piperazinyl)ethoxy)acetic acid, dihrochloride] showed a Tg [1] of 112 °C.

In the case of `CCOC(=O)N1c2ccc(C(F)(F)F)cc2[C@@H](N(Cc2cc(C(F)(F)F)cc(C(F)(F)F)c2)C(=O)OC)C[C@H]1CC` [Control C6, Torcetrapib], the “Cmax90” value ([2]; Drug 4, initial 90 minutes) is reported as less than 1000 ng/mL, the AUC90 ([2]; Drug 4, initial 90 minutes, Table 12) is reported as less than 1470 ng·h/mL and the AUC90 ([2]; Drug 4, initial 90 minutes, Table 15) is reported as less than 88 min-μg/mL. It also gave an AUC90 ([2]; Drug 4, initial 90 minutes, Table 18) of less than 1470 ng·h/mL, an AUC ([2]; Drug 4, time 0 min) of 0 min-μg/mL and an AUC ([2]; Drug 4, time 4 min) of less than 2 min-μg/mL. It also gave an AUC ([2]; Drug 4, time 10 min) of less than 8 min-μg/mL, an AUC ([2]; Drug 4, time 20 min) of less than 18 min-μg/mL and an AUC ([2]; Drug 4, time 40 min) of less than 38 min-μg/mL. For the same compound, the AUC ([2]; Drug 4, time 90 min) was less than 88 min-μg/mL, the AUC ([2]; Drug 4, time 1200 min) was <1,200 min-μg/mL and the “Drug 4 Concentration” value ([2]; time 0 min) was 0 µg/mL. The “Drug 4 Concentration” value ([2]; time 4 min) was less than 1 µg/mL, the “Drug 4 Concentration” value ([2]; time 10 min) was less than 1 µg/mL and the “Drug 4 Concentration” value ([2]; time 20 min) was less than 1 µg/mL. For the same compound, the “Drug 4 Concentration” value ([2]; time 40 min) was less than 1 µg/mL, the “Drug 4 Concentration” value ([2]; time 90 min) was less than 1 µg/mL and the “Drug 4 Concentration” value ([2]; time 1200 min) was less than 1 µg/mL.

In the case of `O=C(N[C@@H](Cc1ccccc1)[C@@H](O)C(=O)N1C[C@@H](O)[C@@H](O)C1)c1cc2cc(Cl)ccc2[nH]1` [Drug 1, 5-chloro-1H-indole-2-carboxylic acid [(1S)-benzyl-(2R)-hydroxy-3-((3R,4S)-dihydroxy-pyrrolidin-1-yl-)-3-oxypropyl]amide], the Tg [1] is reported as 96 °C and the “Tg,drug” value ([1]; at ambient RH) is reported as 113 °C.

With `O=C(N[C@@H](Cc1ccccc1)[C@@H](O)C(=O)N1C[C@@H](O)[C@@H](O)C1)c1cc2cc(Cl)ccc2[nH]1` [Example C1, 5-chloro-1H-indole-2-carboxylic acid [(1S)-benzyl-(2R)-hydroxy-3-((3R,4S)-dihydroxy-pyrrolidin-1-yl-)-3-oxypropyl]amide] the AUC90 ([3]; Drug 1, MFD, initial 90 minutes) was 21,600 min * μg/mL, the MDC90 ([3]; Drug 1, MFD, maximum drug concentration during initial 90 minutes) was 255 µg/mL and the AUC ([3]; Drug 1, time 0 min) was 0 µg·min/mL. For the same compound, the AUC ([3]; Drug 1, time 4 min) was 400 µg·min/mL, the AUC ([3]; Drug 1, time 10 min) was 1700 µg·min/mL and the AUC ([3]; Drug 1, time 20 min) was 4100 µg·min/mL. The AUC ([3]; Drug 1, time 40 min) was 9000 µg·min/mL, the AUC ([3]; Drug 1, time 90 min) was 21,600 min * μg/mL and the AUC ([3]; Drug 1, time 1200 min) was 299,000 min * μg/mL. The “Drug 1 Concentration” value ([3]; time 0 min) was 0 µg/mL, the “Drug 1 Concentration” value ([3]; time 4 min) was 204 µg/mL and the “Drug 1 Concentration” value ([3]; time 10 min) was 227 µg/mL. The “Drug 1 Concentration” value ([3]; time 20 min) was 243 µg/mL, the “Drug 1 Concentration” value ([3]; time 40 min) was 250 µg/mL and the “Drug 1 Concentration” value ([3]; time 90 min) was 255 µg/mL. The “Drug 1 Concentration” value ([3]; time 1200 min) was 244 µg/mL.

`O=C1Cc2cc(CCN3CCN(c4nsc5ccccc45)CC3)c(Cl)cc2N1` [Ziprasidone] showed a Tg [1] of 72 °C.

Compound `CCC(CC)Nc1cc(C)nc(Oc2c(C)cc(C)cc2C)c1C.Cl` [[3,6-dimethyl-2-(2,4,6-trimethyl-phenoxy)-pyridin-4-yl]-(1-ethyl-propyl)-amine hydrochloride] has a Tg [1] of 87 °C.

From US8974823B2, “Solid compositions of low-solubility drugs and poloxamers” (Bend Research, Inc., priority 2003, dated 2015)
